According to patent publication US10500198B2, “Bis-benzylidine piperidone proteasome inhibitor with anticancer activity” (The Johns Hopkins University, priority 2013, dated 2019):
“Also recorded” adds a separate entry of the source.

Key:
RPN13 = biological target: T1, RPN13 (Homo sapiens, UniProt Q16186); assay: Biotin labeling assay; format: binding; conditions: cell lysate or purified RP, streptavidin-peroxidase blot
T1 construct: endogenous in cells; host or cells: HeLa, HS578T cell lysate
Method: FIGS. 10 A-10E show a series of graphs and immunoblots showing the effects of several compounds on cell viability and proteasome activity. […] 10B and 10C show immunoblots of the proteasome activity of cell lines treated with the indicated compounds. […] IC50 values were determined in triplicate. In FIG. 10B, HeLa cells were treated for 12 hr and the cell lysate was subjected to immunoblot analysis with anti-Ubiquitin antibody. In FIG. 10C, SiHa cells were treated with the indicated compounds for 12 hr and the lysate subjected to Western blot analysis with anti-Ubiquitin antibody. HeLa cell lysate was treated with RA190B, subjected to SDS-PAGE, and probed with streptavidin-peroxidase following protein transfer to a polyvinylidene difluoride (PVDF) membrane. The streptavidin-peroxidase bound to biotinylated cellular proteins, but a striking new band at 42 kDa appeared in RA190B-treated samples (FIG. 2A). […] IC50 values were determined in triplicate.
To eliminate the possibility that another RP component was required for RA190B interaction, RPN13 or an irrelevant protein (L2) was overexpressed in bacteria. Cell lysate harvested from bacteria either with or without […] induction of ectopic protein expression was labeled with RA190B and probed by blotting with streptavidin-peroxidase. RA190B reacted strongly with a 42 kDa protein only in lysates of bacteria expressing RPN13 (FIG. 2D). […] 800 μL fractions were collected and alternate fractions (1,3,5,7,9,11,13,15,17) were analyzed for the presence of proteasomal proteins (RPN13, RPN2, RPN1 and UCH37) by Western blot analysis.
Human cells (5×10^6 HeLa or 293TT cells) were lysed using MPER (Pierce) lysis buffer (500 μL). RPN13 or HPV L2 transformed bacterial cells (500 μL of culture) were centrifuged to harvest the cells which were re-suspended in 500 μL BPER (Pierce). Cell lysates were centrifuged at 10,000 rpm briefly (2 min) at 4° C. to remove cell debris. Lysate supernatant (200 μL) was pre cleared with streptavidin dyna beads (20 μL) for 1 h at 4° C. to remove non-specific biotin binding and incubated with compounds (indicated concentrations or 20 μM) at 4° C. for 1 hr. An equal amount of each sample (20 μL of lysate) was mixed with an equal volume of Laemmli sample buffer (20 μL) (BioRad) and was boiled for 5 min. […] (24 V). Membrane was blocked with 5% BSA in PBST for 1 hr at room temperature and washed for 20 min (3×PBST). Then the membrane was probed with HRP-streptavidin (1:10,000 in PBST) for 1 hr at room temperature and washed for 30 min (3×PBST) and developed using HyGLO chemiluminescent detection reagent (Denville) for biotin recognition. For the purified enzyme assay, 19S purified proteasome (R&D Systems, Cat. No. E-366) (500 ng) in 19S buffer (20 mM HEPES, 20 mM NaCl, 1 mM DTT, 15% Glycerol) was incubated with compounds (20 μM) for 1 hr at room temperature and mixed with an equal volume of Laemmli sample buffer (20 μL) (BioRad) and was boiled for 5 min. Each sample was loaded onto gel and followed the western blot protocol mentioned above.
Purified 19S proteasome (500 ng) was incubated with corresponding compounds for 30 min and subjected to immunoblot and probed with HRP-conjugated streptavidin. In FIG. 23, the single band at 42 KDa indicates Rpn13 binding to 195. RA183B (20 μM) is used as positive control for Rpn13 binding. Competition experiments were done with RA183 (100 μM) and RA195 (100 μM) along with RA195B (20 μM).

[1] = tested on: TNFα-induced NFκB activation in 293 cells; assay: NFκB/FL reporter assay; format: cell-based; conditions: TNFα 10 ng/ml, 7 h
Method: 293 cells transiently transfected with either NFκB/FL (firefly luciferase reporter construct under control of an NFκB-driven promoter) or control CMV promoter-driven FL reporter construct were treated with compounds and TNFα (10 ng/ml) for 7 h. Upon the addition of luciferin, bioluminescence was measured in cell lysates using a luminometer. Results can be seen in FIG. 20.
293 cells transiently transfected with either NFκB/FL or control FL reporter genes were treated with compounds and TNFα (10 ng/ml) for 7 h. Upon the addition of luciferin, bioluminescence was measured in cell lysates using a luminometer.

[2] = tested on: polyubiquitinated proteins, p53 and p21 in HeLa cells; assay: Immunoblot of HeLa cell lysates; format: cell-based, human
Method: FIGS. 1 A-D show percent cell viability of RPMI-8226, ANBL6, and their respective in vitro selected bortezomib-resistant cell lines RPMI-8226-V10R and ANBL6-V10R as a function of 48 hr treatment with the indicated compounds. FIGS. 1 E-H show percent cell viability of indicated MM cell lines as a function of 48 hr treatment with the indicated compounds. […] Actin was used as a loading control. […] In FIG. 9C-E, purified 20S proteasomes were treated for 30 min with or without compounds (1 μM) prior to the addition of the specific fluorogenic substrate for chymotryptic (9C), tryptic (9D) or PGPH (9E) hydrolytic proteasome capacities. Mean±SD fluorescence associated with AMC released from the substrate was measured at 45 min. […] DMSO was added to all samples to a final concentration of 0.1% (upper panel). The effect of DMSO is highlighted by including ubiquitin—AMC (0.5 μM) hydrolysis with 2 nM UCH37 lacking DMSO (orange, bottom panel). In FIG. 9H, purified 19S RP (500 nM) in buffer was treated with corresponding compounds 30 min at 37° C. and AMC cleavage was measured with a fluorometer for 20 min. Ubal was used as a positive control.
Total cellular protein (10-20 μg) from each sample was subjected to SDS-PAGE, transferred to PVDF membranes and analyzed by Western blot. […]

T1 sequence (Q16186 whole entry): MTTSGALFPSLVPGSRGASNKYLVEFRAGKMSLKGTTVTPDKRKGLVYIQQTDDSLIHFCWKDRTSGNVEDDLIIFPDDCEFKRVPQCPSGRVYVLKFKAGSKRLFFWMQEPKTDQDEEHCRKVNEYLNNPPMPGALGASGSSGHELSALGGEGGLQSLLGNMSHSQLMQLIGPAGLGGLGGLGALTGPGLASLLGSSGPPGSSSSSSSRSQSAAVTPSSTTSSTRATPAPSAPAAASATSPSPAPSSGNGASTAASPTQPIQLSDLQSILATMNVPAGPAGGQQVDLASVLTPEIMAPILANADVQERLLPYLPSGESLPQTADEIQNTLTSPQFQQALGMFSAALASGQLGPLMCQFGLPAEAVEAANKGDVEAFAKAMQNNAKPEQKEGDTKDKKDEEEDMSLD

Structure (SMILES)	labeling of / competition for RPN13 (42 kDa band) (RPN13)	TNFα-induced NFκB activation [1]	levels of K48-linked polyubiquitinated proteins ([2]; 4 hr)	levels of p53 and p21 proteins ([2]; 1 μM, 12 h)	poly-ubiquitinated (Poly UB) proteins ([2]; 1 μM, 12 h)
Cl.N[C@@H](Cc1ccccc1)C(=O)N1CC(=Cc2ccc(Cl)c(Cl)c2)C(=O)C(=Cc2ccc(Cl)c(Cl)c2)C1 [RA190, 3,5-bis(3,4-dichlorobenzylidene)-1-(S-2-amino-3-phenyl)-piperidin-4-one-HCl salt]	competitive; also recorded: covalently binds directly to RPN13	Inhibits TNFα-Induced NFκB Activation	dramatically increased	–	–
Cl.NCCCC[C@H](NC(=O)OCC1c2ccccc2-c2ccccc21)C(=O)N1C/C(=C\c2ccc(Cl)c(Cl)c2)C(=O)/C(=C/c2ccc(Cl)c(Cl)c2)C1 [RA195]	binds covalently to RPN13	inhibited TNFα-induced NFκB activation	–	elevated the levels of p53 and p21 proteins	caused the accumulation of poly-ubiqutinated (Poly UB) proteins
